According to the NIST ThermoML archive (doi:10.1016/j.tca.2012.01.013):
± gives the expanded uncertainty stated by the source.

Columns and labels:
[1] = 101 kPa, Liquid, Vibrating tube method
[2] = refractive index (Na D-line) (dimensionless); settings: 101.33 kPa, Liquid, Standard Abbe refractometry
[3] = xn = mol fraction of the nth substance listed; settings: 101 kPa, Liquid, Vibrating tube method, x2 = 0
[4] = refractive index (Na D-line) (dimensionless); xn = mol fraction of the nth substance listed; settings: 101 kPa, Liquid, Standard Abbe refractometry, x2 = 0

Compound | mass density ([1]; 288.15 K) | mass density ([1]; 293.15 K) | mass density ([1]; 298.15 K) | mass density ([1]; 303.15 K) | mass density ([3]; 288.15 K) | mass density ([3]; 293.15 K) | mass density ([3]; 298.15 K) | mass density ([3]; 303.15 K) | mass density ([3]; 308.15 K) | mass density ([3]; 313.15 K) | mass density ([3]; 318.15 K) | mass density ([3]; 323.15 K) | refractive index ([4]; 288.15 K) | refractive index ([4]; 293.15 K) | refractive index ([4]; 298.15 K) | refractive index ([4]; 303.15 K) | refractive index ([4]; 308.15 K) | refractive index ([4]; 313.15 K) | refractive index ([4]; 318.15 K) | refractive index ([4]; 323.15 K) | further results
CCCCO [butan-1-ol] | 813.373 ± 0.14 kg/m3 | 809.573 ± 0.14 kg/m3 | 805.762 ± 0.15 kg/m3 | 801.923 ± 0.15 kg/m3 | – | – | – | – | – | – | – | – | – | – | – | – | – | – | – | – | mass density ([1]; 308.15 K): 798.053 ± 0.15 kg/m3; mass density ([1]; 313.15 K): 794.147 ± 0.15 kg/m3; mass density ([1]; 318.15 K): 790.231 ± 0.15 kg/m3; mass density ([1]; 323.15 K): 786.238 ± 0.15 kg/m3; refractive index ([2]; 288.15 K): 1.40135 ± 0.00036; refractive index ([2]; 293.15 K): 1.39932 ± 0.00036; refractive index ([2]; 298.15 K): 1.3973 ± 0.00036; refractive index ([2]; 303.15 K): 1.39523 ± 0.00036; refractive index ([2]; 308.15 K): 1.39318 ± 0.00036; refractive index ([2]; 313.15 K): 1.3911 ± 0.00036; refractive index ([2]; 318.15 K): 1.38901 ± 0.00036; refractive index ([2]; 323.15 K): 1.38688 ± 0.00036
CCCCO [butan-1-ol] + COC(=O)CCCCC(=O)OC | – | – | – | – | 813.373 ± 0.14 kg/m3 | 809.573 ± 0.14 kg/m3 | 805.762 ± 0.15 kg/m3 | 801.923 ± 0.15 kg/m3 | 798.053 ± 0.15 kg/m3 | 794.147 ± 0.15 kg/m3 | 790.231 ± 0.15 kg/m3 | 786.238 ± 0.15 kg/m3 | 1.40135 ± 0.00036 | 1.39932 ± 0.00036 | 1.3973 ± 0.00036 | 1.39523 ± 0.00036 | 1.39318 ± 0.00036 | 1.3911 ± 0.00036 | 1.38901 ± 0.00036 | 1.38688 ± 0.00036 | –
CCCCO [butan-1-ol] + COC(=O)c1ccccc1C(=O)OC | – | – | – | – | 813.373 ± 0.14 kg/m3 | 809.573 ± 0.14 kg/m3 | 805.762 ± 0.15 kg/m3 | 801.923 ± 0.15 kg/m3 | 798.053 ± 0.15 kg/m3 | 794.147 ± 0.15 kg/m3 | 790.231 ± 0.15 kg/m3 | 786.238 ± 0.15 kg/m3 | 1.40135 ± 0.00036 | 1.39932 ± 0.00036 | 1.3973 ± 0.00036 | 1.39523 ± 0.00036 | 1.39318 ± 0.00036 | 1.3911 ± 0.00036 | 1.38901 ± 0.00036 | 1.38688 ± 0.00036 | –
CCC(C)O (stereo unspecified) [butan-2-ol] | 810.689 ± 0.24 kg/m3 | 806.646 ± 0.24 kg/m3 | 802.528 ± 0.24 kg/m3 | 798.326 ± 0.24 kg/m3 | – | – | – | – | – | – | – | – | – | – | – | – | – | – | – | – | mass density ([1]; 308.15 K): 794.03 ± 0.24 kg/m3; mass density ([1]; 313.15 K): 789.632 ± 0.24 kg/m3; mass density ([1]; 318.15 K): 785.117 ± 0.24 kg/m3; mass density ([1]; 323.15 K): 780.515 ± 0.24 kg/m3; refractive index ([2]; 288.15 K): 1.39951 ± 0.0004; refractive index ([2]; 293.15 K): 1.39736 ± 0.0004; refractive index ([2]; 298.15 K): 1.39515 ± 0.0004; refractive index ([2]; 303.15 K): 1.39293 ± 0.0004; refractive index ([2]; 308.15 K): 1.39064 ± 0.0004; refractive index ([2]; 313.15 K): 1.38832 ± 0.0004; refractive index ([2]; 318.15 K): 1.38596 ± 0.0004; refractive index ([2]; 323.15 K): 1.38352 ± 0.0004
CCC(C)O (stereo unspecified) [butan-2-ol] + COC(=O)CCCCC(=O)OC | – | – | – | – | 810.689 ± 0.24 kg/m3 | 806.646 ± 0.24 kg/m3 | 802.528 ± 0.24 kg/m3 | 798.326 ± 0.24 kg/m3 | 794.03 ± 0.24 kg/m3 | 789.632 ± 0.24 kg/m3 | 785.117 ± 0.24 kg/m3 | 780.515 ± 0.24 kg/m3 | 1.39951 ± 0.0004 | 1.39736 ± 0.0004 | 1.39515 ± 0.0004 | 1.39293 ± 0.0004 | 1.39064 ± 0.0004 | 1.38832 ± 0.0004 | 1.38596 ± 0.0004 | 1.38352 ± 0.0004 | –
CCC(C)O (stereo unspecified) [butan-2-ol] + COC(=O)c1ccccc1C(=O)OC | – | – | – | – | 810.689 ± 0.24 kg/m3 | 806.646 ± 0.24 kg/m3 | 802.528 ± 0.24 kg/m3 | 798.326 ± 0.24 kg/m3 | 794.03 ± 0.24 kg/m3 | 789.632 ± 0.24 kg/m3 | 785.117 ± 0.24 kg/m3 | 780.515 ± 0.24 kg/m3 | 1.39951 ± 0.0004 | 1.39736 ± 0.0004 | 1.39515 ± 0.0004 | 1.39293 ± 0.0004 | 1.39064 ± 0.0004 | 1.38832 ± 0.0004 | 1.38596 ± 0.0004 | 1.38352 ± 0.0004 | –
CCC(C)=O [butanone] | 810.133 ± 0.15 kg/m3 | 804.926 ± 0.15 kg/m3 | 799.695 ± 0.15 kg/m3 | 794.435 ± 0.16 kg/m3 | – | – | – | – | – | – | – | – | – | – | – | – | – | – | – | – | mass density ([1]; 308.15 K): 789.142 ± 0.16 kg/m3; mass density ([1]; 313.15 K): 783.814 ± 0.15 kg/m3; mass density ([1]; 318.15 K): 778.451 ± 0.15 kg/m3; mass density ([1]; 323.15 K): 773.047 ± 0.16 kg/m3; refractive index ([2]; 288.15 K): 1.38153 ± 0.00036; refractive index ([2]; 293.15 K): 1.37892 ± 0.00036; refractive index ([2]; 298.15 K): 1.37631 ± 0.00036; refractive index ([2]; 303.15 K): 1.37366 ± 0.00036; refractive index ([2]; 308.15 K): 1.37102 ± 0.00036; refractive index ([2]; 313.15 K): 1.36834 ± 0.00036; refractive index ([2]; 318.15 K): 1.36565 ± 0.00036; refractive index ([2]; 323.15 K): 1.36294 ± 0.00036
CCC(C)=O [butanone] + COC(=O)CCCCC(=O)OC | – | – | – | – | 810.133 ± 0.15 kg/m3 | 804.926 ± 0.15 kg/m3 | 799.695 ± 0.15 kg/m3 | 794.435 ± 0.16 kg/m3 | 789.142 ± 0.16 kg/m3 | 783.814 ± 0.16 kg/m3 | 778.451 ± 0.16 kg/m3 | 773.047 ± 0.16 kg/m3 | 1.38153 ± 0.00036 | 1.37892 ± 0.00036 | 1.37631 ± 0.00036 | 1.37366 ± 0.00036 | 1.37102 ± 0.00036 | 1.36834 ± 0.00036 | 1.36565 ± 0.00036 | 1.36294 ± 0.00036 | –
CCC(C)=O [butanone] + COC(=O)c1ccccc1C(=O)OC | – | – | – | – | 810.133 ± 0.15 kg/m3 | 804.926 ± 0.15 kg/m3 | 799.695 ± 0.15 kg/m3 | 794.435 ± 0.16 kg/m3 | 789.142 ± 0.16 kg/m3 | 783.814 ± 0.15 kg/m3 | 778.451 ± 0.15 kg/m3 | 773.047 ± 0.16 kg/m3 | 1.38153 ± 0.00036 | 1.37892 ± 0.00036 | 1.37631 ± 0.00036 | 1.37366 ± 0.00036 | 1.37102 ± 0.00036 | 1.36834 ± 0.00036 | 1.36565 ± 0.00036 | 1.36294 ± 0.00036 | –
COC(=O)c1ccccc1C(=O)OC [dimethyl 1,2-benzenedicarboxylate] | 1196.26 ± 0.39 kg/m3 | 1191.59 ± 0.39 kg/m3 | 1186.93 ± 0.39 kg/m3 | 1182.28 ± 0.38 kg/m3 | – | – | – | – | – | – | – | – | – | – | – | – | – | – | – | – | mass density ([1]; 308.15 K): 1177.62 ± 0.38 kg/m3; mass density ([1]; 313.15 K): 1172.97 ± 0.37 kg/m3; mass density ([1]; 318.15 K): 1168.32 ± 0.37 kg/m3; mass density ([1]; 323.15 K): 1163.67 ± 0.37 kg/m3; refractive index ([2]; 288.15 K): 1.51779 ± 0.0004; refractive index ([2]; 293.15 K): 1.51565 ± 0.0004; refractive index ([2]; 298.15 K): 1.51354 ± 0.0004; refractive index ([2]; 303.15 K): 1.51146 ± 0.0004; refractive index ([2]; 308.15 K): 1.50943 ± 0.0004; refractive index ([2]; 313.15 K): 1.50736 ± 0.0004; refractive index ([2]; 318.15 K): 1.50524 ± 0.0004; refractive index ([2]; 323.15 K): 1.5032 ± 0.0004
COC(=O)CCCCC(=O)OC [dimethyl 1,6-hexanedioate] | 1066.79 ± 0.29 kg/m3 | 1061.93 ± 0.28 kg/m3 | 1057.06 ± 0.28 kg/m3 | 1052.18 ± 0.28 kg/m3 | – | – | – | – | – | – | – | – | – | – | – | – | – | – | – | – | mass density ([1]; 308.15 K): 1047.31 ± 0.27 kg/m3; mass density ([1]; 313.15 K): 1042.43 ± 0.27 kg/m3; mass density ([1]; 318.15 K): 1037.54 ± 0.27 kg/m3; mass density ([1]; 323.15 K): 1032.64 ± 0.26 kg/m3; refractive index ([2]; 288.15 K): 1.4305 ± 0.0004; refractive index ([2]; 293.15 K): 1.42842 ± 0.0004; refractive index ([2]; 298.15 K): 1.42636 ± 0.0004; refractive index ([2]; 303.15 K): 1.42429 ± 0.0004; refractive index ([2]; 308.15 K): 1.42222 ± 0.0004; refractive index ([2]; 313.15 K): 1.42017 ± 0.0004; refractive index ([2]; 318.15 K): 1.41819 ± 0.0004; refractive index ([2]; 323.15 K): 1.41614 ± 0.0004
